# Experimental data: ChEMBL document CHEMBL1201862, “PubChem BioAssay data set” (2004)
# Activity calls are given as the source filed them.
# Legend:
# [1] = molecular target: DNA dC->dU-editing enzyme APOBEC-3G (Homo sapiens, UniProt Q9HC16); test: inhibition of APOBEC3G ssDNA deamination – biochemical, fluorescence, single-stranded DNA substrate, SAR follow-up (AID 602136); format: functional; settings: read-out: IC50_Mean
# [2] = molecular target: DNA dC->dU-editing enzyme APOBEC-3A (Homo sapiens, UniProt P31941); test: SAR analysis of small molecule inhibitors of APOBEC3A DNA Deaminase via a fluorescence-based single-stranded DNA deaminase assay.; format: functional; settings: read-out: IC50_Mean
# Chain of DNA dC->dU-editing enzyme APOBEC-3A (P31941 whole entry): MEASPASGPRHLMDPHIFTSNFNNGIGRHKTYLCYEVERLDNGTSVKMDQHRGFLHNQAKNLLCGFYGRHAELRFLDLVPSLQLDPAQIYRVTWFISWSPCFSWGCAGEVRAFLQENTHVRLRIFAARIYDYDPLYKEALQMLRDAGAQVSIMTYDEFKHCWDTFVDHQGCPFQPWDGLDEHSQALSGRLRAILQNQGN
# Caspase-3 [3] = molecular target: T1, Caspase-3 (Homo sapiens, UniProt P42574); test: inhibition of recombinant caspase-3 activity – biochemical, luminescence, set 2, selectivity assay for SENP protease inhibitor project, SAR follow-up (AID 588599); format: functional
# T1 sequence (P42574 whole entry): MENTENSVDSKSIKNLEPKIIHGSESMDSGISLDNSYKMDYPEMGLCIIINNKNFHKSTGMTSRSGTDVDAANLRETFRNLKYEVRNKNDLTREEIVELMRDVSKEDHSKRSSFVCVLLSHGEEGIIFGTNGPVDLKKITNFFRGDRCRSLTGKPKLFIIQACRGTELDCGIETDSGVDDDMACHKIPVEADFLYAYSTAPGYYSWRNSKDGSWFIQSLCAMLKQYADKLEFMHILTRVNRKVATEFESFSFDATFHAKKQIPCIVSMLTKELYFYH
# [4] = molecular target: T2, Sentrin-specific protease 8 (Homo sapiens, UniProt Q96LD8); test: inhibition of sentrin protease 8 – biochemical, luminescence, set 2, SAR follow-up (AID 588601); format: functional
# T2 sequence (Q96LD8 whole entry): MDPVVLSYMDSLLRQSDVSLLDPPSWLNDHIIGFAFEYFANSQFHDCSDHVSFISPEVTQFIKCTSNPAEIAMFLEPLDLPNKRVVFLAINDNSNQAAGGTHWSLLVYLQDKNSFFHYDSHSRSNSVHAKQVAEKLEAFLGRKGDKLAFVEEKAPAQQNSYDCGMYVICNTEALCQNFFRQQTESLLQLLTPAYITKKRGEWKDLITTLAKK
# [5] = molecular target: T3, Sentrin-specific protease 7 (Homo sapiens, UniProt Q9BQF6); test: inhibition of human SENP7 cleavage activity – biochemical, luminescence, set 2, SAR follow-up (AID 588600); format: functional
# T3 sequence (Q9BQF6 whole entry): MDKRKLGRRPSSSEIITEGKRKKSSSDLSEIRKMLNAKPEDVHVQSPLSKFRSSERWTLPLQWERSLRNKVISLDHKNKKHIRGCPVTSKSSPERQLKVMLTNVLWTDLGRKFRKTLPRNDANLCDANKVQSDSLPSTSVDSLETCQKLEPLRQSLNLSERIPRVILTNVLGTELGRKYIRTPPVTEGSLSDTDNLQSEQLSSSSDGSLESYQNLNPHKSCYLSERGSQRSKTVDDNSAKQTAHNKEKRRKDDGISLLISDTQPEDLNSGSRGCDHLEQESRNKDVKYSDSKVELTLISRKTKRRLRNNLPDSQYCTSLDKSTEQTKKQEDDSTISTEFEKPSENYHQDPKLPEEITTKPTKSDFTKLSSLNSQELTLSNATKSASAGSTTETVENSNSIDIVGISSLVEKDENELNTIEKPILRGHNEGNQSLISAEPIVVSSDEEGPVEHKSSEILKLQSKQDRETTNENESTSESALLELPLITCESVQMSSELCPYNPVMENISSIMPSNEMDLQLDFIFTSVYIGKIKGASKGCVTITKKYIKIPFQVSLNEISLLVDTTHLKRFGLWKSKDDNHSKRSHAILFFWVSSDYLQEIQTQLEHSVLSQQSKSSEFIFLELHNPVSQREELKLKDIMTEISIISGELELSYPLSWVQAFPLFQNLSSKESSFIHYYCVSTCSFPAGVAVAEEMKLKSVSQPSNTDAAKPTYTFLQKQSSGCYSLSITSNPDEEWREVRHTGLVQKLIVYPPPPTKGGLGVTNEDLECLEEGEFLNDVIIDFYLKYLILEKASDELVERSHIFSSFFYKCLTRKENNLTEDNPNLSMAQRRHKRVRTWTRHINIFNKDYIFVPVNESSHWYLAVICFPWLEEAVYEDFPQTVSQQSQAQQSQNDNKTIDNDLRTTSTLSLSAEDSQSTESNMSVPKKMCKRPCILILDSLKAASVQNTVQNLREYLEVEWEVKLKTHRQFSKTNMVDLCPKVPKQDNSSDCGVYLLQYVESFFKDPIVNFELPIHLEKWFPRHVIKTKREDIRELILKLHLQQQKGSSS
# [6] = molecular target: T4, Sentrin-specific protease 6 (Homo sapiens, UniProt Q9GZR1); test: inhibition of human SENP6 catalytic domain – biochemical, luminescence, set 2, SAR follow-up (AID 588598); format: functional
# T4 sequence (Q9GZR1 whole entry): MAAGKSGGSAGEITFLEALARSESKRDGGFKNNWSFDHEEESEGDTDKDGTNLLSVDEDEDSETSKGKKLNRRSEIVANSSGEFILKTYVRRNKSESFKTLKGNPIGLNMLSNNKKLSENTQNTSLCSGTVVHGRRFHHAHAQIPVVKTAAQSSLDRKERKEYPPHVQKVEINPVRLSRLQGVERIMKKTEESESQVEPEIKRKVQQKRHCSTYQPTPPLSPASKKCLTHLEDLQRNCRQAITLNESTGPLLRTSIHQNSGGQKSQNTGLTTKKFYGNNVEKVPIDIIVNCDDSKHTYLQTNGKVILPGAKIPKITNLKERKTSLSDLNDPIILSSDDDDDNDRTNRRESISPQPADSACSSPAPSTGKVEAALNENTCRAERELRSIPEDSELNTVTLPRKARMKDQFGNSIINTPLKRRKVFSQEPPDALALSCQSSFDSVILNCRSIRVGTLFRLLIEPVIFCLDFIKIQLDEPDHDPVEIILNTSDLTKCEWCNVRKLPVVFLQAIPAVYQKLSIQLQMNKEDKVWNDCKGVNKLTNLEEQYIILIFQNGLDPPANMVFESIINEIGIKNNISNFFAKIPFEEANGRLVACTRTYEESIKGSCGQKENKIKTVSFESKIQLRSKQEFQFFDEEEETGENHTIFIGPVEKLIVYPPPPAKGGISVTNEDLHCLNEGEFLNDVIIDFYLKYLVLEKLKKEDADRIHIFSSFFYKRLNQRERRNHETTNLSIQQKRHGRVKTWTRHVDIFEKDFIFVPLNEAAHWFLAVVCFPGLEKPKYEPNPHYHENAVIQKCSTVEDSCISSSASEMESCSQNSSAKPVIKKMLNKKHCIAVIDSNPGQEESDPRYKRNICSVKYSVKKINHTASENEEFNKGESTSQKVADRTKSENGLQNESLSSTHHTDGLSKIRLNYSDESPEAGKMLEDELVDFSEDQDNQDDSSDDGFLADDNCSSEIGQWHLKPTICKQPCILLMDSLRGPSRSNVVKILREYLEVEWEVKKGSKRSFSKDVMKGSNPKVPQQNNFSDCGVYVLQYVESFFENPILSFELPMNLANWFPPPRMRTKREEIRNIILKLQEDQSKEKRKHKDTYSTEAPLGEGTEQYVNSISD
# Genome polyprotein = Genome polyprotein (dengue virus type 2, UniProt P29990); test: flavivirus cap methylation enzyme inhibition – biochemical, confirmation dose response, primary screen (AID 588689); format: functional
# Chain of Genome polyprotein (P29990 2492-3391 limits assumed): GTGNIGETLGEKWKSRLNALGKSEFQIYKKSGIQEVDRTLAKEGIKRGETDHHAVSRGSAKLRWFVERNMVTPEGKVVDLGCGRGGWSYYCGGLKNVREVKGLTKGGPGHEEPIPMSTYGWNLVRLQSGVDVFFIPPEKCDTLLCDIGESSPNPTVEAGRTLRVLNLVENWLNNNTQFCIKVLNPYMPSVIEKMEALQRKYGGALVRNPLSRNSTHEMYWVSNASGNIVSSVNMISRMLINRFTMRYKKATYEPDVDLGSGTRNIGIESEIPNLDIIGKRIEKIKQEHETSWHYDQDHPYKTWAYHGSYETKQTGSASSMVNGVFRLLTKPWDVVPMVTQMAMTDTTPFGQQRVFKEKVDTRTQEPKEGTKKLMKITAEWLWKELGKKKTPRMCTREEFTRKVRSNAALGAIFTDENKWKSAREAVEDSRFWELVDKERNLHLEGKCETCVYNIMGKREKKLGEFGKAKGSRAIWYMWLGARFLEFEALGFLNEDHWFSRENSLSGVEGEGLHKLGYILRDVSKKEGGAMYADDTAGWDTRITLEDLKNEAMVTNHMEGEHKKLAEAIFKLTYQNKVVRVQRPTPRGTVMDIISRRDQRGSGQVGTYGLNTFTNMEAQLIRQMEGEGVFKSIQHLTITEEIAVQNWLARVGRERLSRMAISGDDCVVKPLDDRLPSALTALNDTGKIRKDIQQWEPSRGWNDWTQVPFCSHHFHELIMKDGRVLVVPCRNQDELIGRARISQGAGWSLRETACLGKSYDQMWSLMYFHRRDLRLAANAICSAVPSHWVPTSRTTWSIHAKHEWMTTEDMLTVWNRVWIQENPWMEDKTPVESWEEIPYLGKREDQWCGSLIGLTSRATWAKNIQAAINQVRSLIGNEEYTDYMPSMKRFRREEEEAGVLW
# [7] = molecular target: Adenosylmethionine-8-amino-7-oxononanoate aminotransferase (Mycobacterium tuberculosis, UniProt P9WQ81); test: Mycobacterium tuberculosis BioA enzyme inhibitor Measured in Biochemical System Using Plate Reader - 2163-02_Inhibitor_Dose_CherryPick_Activity.; format: functional, Mycobacterium tuberculosis UT205
# Chain of Adenosylmethionine-8-amino-7-oxononanoate aminotransferase (P9WQ81 whole entry): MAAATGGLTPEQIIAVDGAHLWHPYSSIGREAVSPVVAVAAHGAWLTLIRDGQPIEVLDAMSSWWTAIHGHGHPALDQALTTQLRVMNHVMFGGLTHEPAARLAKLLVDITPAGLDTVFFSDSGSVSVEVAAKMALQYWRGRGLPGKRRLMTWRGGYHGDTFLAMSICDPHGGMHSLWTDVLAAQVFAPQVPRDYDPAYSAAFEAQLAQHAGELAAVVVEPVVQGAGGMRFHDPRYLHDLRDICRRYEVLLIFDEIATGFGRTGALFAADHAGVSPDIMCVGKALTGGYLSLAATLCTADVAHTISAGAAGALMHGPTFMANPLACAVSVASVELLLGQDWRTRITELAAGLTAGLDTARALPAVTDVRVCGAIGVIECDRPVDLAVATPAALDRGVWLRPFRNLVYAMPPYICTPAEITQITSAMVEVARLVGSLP
# [8] = molecular target: T2, Sentrin-specific protease 8; test: inhibition of human SENP8 cleavage activity – biochemical, luminescence, SAR follow-up (AID 504501); format: functional
# Caspase-3 [9] = molecular target: T1, Caspase-3; test: SAR Analysis of small molecule inhibitors of Sentrin-specific proteases (SENPs) using a Caspase-3 Selectivity assay. [Related pubchem assays (depositor defined):AID2540, AID2599, AID434973, AID489001]; format: functional
# [10] = molecular target: T4, Sentrin-specific protease 6; test: SAR Analysis of small molecule inhibitors of Sentrin-specific protease 6 (SENP6) using a Luminescent assay. [Related pubchem assays (depositor defined):AID2582, AID2599]; format: functional
# [11] = molecular target: T3, Sentrin-specific protease 7; test: inhibition of human SENP7 cleavage activity – biochemical, luminescence, SAR follow-up (AID 504497); format: functional
# [12] = inhibition of ARNT PAS-B/TACC3 complex formation – biochemical, AlphaScreen, cherry-picked samples, confirmation (AID 651703); format: functional, Homo sapiens;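 note: His-tagged ARNT PAS-B domain paired with GST-TACC3 E629A dimer coactivator fragment; potency of inhibitors that break up the complex and lower AlphaScreen signal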
# Interleukin-8 [13] = molecular target: T5, Interleukin-8 (Homo sapiens, UniProt P10145); test: Dose Response confirmation of uHTS small molecule hits for cystic fibrosis induced NFkb Inhibitors in a TNFa-induced IL8 counterscreen.; format: functional; settings: read-out: IC50_Mean
# T5 sequence (P10145 whole entry): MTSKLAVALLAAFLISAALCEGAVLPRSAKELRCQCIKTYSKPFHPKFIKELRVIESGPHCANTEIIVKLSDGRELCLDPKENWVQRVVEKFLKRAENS
# Interleukin-8 [14] = molecular target: T5, Interleukin-8; test: Dose Response confirmation of uHTS small molecule hits for cystic fibrosis induced NFkb Inhibitors in a PAF-induced IL8 counterscreen.; format: functional; settings: read-out: IC50_Mean
# [15] = molecular target: Aryl hydrocarbon receptor (Homo sapiens, UniProt P35869); settings: Potency;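 note: confirmatory quantitative high-throughput screen measuring activation of the AhR signaling pathway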
# Chain of Aryl hydrocarbon receptor (P35869 whole entry): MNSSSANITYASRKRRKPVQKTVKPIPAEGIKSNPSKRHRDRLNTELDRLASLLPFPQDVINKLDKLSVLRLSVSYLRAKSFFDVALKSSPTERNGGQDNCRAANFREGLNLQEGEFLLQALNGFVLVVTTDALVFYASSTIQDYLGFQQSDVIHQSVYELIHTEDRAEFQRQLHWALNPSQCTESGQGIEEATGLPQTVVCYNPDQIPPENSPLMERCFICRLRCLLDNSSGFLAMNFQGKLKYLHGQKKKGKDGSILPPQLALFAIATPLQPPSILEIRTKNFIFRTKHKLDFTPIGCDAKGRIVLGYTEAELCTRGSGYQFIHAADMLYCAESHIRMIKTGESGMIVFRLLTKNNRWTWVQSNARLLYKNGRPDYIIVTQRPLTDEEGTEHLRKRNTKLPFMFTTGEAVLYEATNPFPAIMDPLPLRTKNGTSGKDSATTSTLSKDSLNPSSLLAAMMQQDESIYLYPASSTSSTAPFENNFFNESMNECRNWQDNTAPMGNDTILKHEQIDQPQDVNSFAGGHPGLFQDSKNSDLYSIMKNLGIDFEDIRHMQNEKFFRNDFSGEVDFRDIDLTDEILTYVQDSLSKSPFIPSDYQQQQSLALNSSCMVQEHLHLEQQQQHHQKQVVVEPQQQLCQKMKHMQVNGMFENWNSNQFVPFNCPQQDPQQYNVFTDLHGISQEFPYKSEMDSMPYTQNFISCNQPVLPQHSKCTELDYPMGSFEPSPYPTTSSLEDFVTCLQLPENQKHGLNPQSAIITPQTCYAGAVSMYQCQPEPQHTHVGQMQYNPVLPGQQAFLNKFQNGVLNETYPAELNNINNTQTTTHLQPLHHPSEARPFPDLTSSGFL
# Chain of DNA dC->dU-editing enzyme APOBEC-3G (Q9HC16 whole entry): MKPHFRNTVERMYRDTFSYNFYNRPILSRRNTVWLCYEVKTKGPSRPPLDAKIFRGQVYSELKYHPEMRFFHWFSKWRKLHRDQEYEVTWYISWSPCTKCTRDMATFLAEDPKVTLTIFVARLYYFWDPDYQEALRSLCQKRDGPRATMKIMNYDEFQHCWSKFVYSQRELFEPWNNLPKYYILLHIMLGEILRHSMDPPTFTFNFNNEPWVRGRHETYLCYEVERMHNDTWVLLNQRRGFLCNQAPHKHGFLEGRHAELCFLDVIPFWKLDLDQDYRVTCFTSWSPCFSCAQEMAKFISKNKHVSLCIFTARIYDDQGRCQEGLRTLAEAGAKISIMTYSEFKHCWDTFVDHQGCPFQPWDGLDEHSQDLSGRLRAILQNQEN
structure (smiles),measurement,setting,value
COc1ccc(-c2nnc(SCc3nc4ccsc4c(=O)[nH]3)[nH]2)cc1,IC50,[1],66.4 µM (inactive)
same,IC50,[2],> 99 µM (inactive)
COc1cccc(-n2nnc3c(N4CCN(C(=O)C(=O)c5c(C)[nH]c6ccccc56)CC4)ncnc32)c1,IC50,Caspase-3 [3],> 99 µM (inactive)
same,IC50,[4],> 99 µM (inactive)
same,IC50,[5],> 99 µM (inactive)
same,IC50,[6],> 99 µM (inactive)
O=C(O)CN1C(=O)/C(=C\c2cc(Br)ccc2OCc2ccc([N+](=O)[O-])cc2)SC1=S,IC50,Genome polyprotein,30.3 µM (active)
same,AC50,[7],11.7 µM (active)
CCCCc1ccc2nc(NC(=O)c3ccc(Br)o3)sc2c1,IC50,[8],> 99 µM (inactive)
same,IC50,Caspase-3 [3],5.94 µM (active)
same,IC50,[4],5.7 µM (active)
same,IC50,Caspase-3 [9],11 µM (active)
same,IC50,[5],8.4 µM (active)
same,IC50,[10],> 99 µM (inactive)
same,IC50,[6],6.66 µM (active)
same,IC50,[11],3.8 µM (active)
C/C(=N\NC(=O)c1ccncc1)C12CC3CC(CC(C3)C1)C2,AC50,[12],88.3 µM (active)
C=CCn1c(Oc2ccccc2F)nc2c1c(=O)n(C)c(=O)n2C,IC50,Interleukin-8 [13],> 79 µM (inactive)
same,IC50,Interleukin-8 [14],51.1 µM (inactive)
CC(C)OC(=O)Nc1cccc(Cl)c1 [CHLORPROPHAM],AC50,[15],63.1 µM (inconclusive)
